# Reference: ChEMBL document CHEMBL1201862, “PubChem BioAssay data set” (2004)
# Calls of active or inactive are those of the source.
# Legend:
# [1] = molecular target: Eukaryotic translation initiation factor 4E (Mus musculus, UniProt P63073); assay: eIF4E–eIF4G protein interaction inhibitors, dose response, biochemical, TR-FRET (AID 855); assay type: functional;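 note: potency for disrupting eIF4E binding to eIF4GI seen as loss of FRET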
# Streptococcus = assay: Group A Streptococcus viability loss, dose response, counter-screen for streptokinase expression inhibitor project, luminescence, BacTiterGlo (AID 1915); assay type: functional, organism-based;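 note: potency for reduction of bacterial viability or growth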
# [2] = test system: Streptococcus sp. 'group A'; assay: growth inhibition of control SK(-) GAS strain, dose response, counter-screen for streptokinase expression inhibitor project, luminescence, kanamycin, BacTiterGlo, confirmation (AID 1900); assay type: functional, organism-based
# [3] = Vero E6 cell cytotoxicity, dose response, cytotoxicity control for non-replicating M. tuberculosis project, secondary assay (AID 492998); assay type: functional, VeroE6; conditions: Vero C1008
# cells = assay type: functional
# Streptokinase A = molecular target: T1, Streptokinase A (Streptococcus pyogenes serotype M1, UniProt P10520); assay: S. pyogenes streptokinase expression inhibitors, potency, dose response, plasminogen activation absorbance, OD405 (AID 1914); assay type: functional, Streptococcus pyogenes M1 GAS;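 note: secreted streptokinase activity via plasminogen activation per viability signal from cell pellet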
# T1 sequence (P10520 whole entry): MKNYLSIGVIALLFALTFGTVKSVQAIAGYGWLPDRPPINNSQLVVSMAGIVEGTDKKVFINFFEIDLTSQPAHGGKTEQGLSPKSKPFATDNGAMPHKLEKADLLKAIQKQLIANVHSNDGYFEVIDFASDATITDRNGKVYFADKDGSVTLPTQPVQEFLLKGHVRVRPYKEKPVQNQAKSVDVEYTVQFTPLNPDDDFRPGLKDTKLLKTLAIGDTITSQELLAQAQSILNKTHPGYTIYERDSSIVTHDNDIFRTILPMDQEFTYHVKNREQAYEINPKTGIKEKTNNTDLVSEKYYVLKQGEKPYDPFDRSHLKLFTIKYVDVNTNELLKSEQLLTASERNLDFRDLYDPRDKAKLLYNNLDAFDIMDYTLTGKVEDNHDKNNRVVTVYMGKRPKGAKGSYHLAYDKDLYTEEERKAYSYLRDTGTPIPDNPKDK
# Large T antigen = Large T antigen (Simian virus 40, UniProt P03070); assay type: functional, Betapolyomavirus macacae;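 note: Confirmatory-stage PubChem screen for compounds that inhibit SV40 T antigen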
# Chain of Large T antigen (P03070 whole entry): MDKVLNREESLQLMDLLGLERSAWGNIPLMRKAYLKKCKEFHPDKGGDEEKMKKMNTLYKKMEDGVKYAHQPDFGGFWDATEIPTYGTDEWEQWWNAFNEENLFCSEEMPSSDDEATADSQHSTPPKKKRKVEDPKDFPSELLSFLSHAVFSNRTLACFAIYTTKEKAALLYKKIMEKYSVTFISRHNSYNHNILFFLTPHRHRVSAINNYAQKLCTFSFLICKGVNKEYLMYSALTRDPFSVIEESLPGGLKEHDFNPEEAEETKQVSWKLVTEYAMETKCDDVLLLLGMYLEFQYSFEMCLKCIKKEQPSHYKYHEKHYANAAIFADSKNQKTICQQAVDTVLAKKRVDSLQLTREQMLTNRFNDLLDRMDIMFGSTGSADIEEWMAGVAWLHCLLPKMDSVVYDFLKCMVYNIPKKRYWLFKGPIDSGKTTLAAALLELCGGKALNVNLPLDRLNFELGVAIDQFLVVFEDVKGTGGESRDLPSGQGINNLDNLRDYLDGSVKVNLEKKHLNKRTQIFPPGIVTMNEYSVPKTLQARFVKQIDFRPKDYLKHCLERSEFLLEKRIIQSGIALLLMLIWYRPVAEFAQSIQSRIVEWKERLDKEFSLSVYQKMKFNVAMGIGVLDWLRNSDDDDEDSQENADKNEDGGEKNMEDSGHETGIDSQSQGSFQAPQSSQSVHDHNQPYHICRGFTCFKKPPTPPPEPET
# [4] = inhibitors of SNCA 5'UTR-driven reporter translation, confirmation, H4 neuroglioma cells, luminescence (AID 1988); assay type: functional, cell-based
# [5] = Luminescence Cell-Based Dose Retest to Confirm Inhibitors of Cancer Stem Cells. [Related pubchem assays (depositor defined):AID2717, AID2721]; assay type: functional; conditions: Homo sapiens
# [6] = inhibitors of firefly luciferase expression or activity, dose response, H4 neuroglioma cells, luminescence (AID 1990); assay type: functional, cell-based
# [7] = Luminescence Cell-Based Dose Response HTS to Identify Inhibitors of 5'UTR Stem-Loop Driven Prion Protein mRNA Translation in H4 Neuroglioblastoma Cells. [Related pubchem assays: 1827 (Project Summary), 1813 (Primary HTS)]; assay type: functional
# Vero [8] = assay: cells; assay type: functional; conditions: Chlorocebus sabaeus
# [9] = molecular target: T2, Carboxy-terminal domain RNA polymerase II polypeptide A small phosphatase 1 (Homo sapiens, UniProt Q9GZU7); assay: inhibitors of CTDSP1, concentration-response testing, biochemical assay, absorbance-based, actives from ultra-high-throughput screening (AID 540297); assay type: functional
# T2 sequence (Q9GZU7 whole entry): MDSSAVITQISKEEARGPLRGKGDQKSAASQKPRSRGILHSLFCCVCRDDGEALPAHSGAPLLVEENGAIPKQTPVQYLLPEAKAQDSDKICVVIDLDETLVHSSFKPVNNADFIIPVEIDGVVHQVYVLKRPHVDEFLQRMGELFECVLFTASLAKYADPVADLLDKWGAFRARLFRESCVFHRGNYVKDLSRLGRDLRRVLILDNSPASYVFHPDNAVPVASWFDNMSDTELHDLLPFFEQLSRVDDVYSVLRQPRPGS
# [10] = THP-1 cell cytotoxicity, dose response, cytotoxicity control for non-replicating M. tuberculosis project (AID 489025); assay type: functional
# [11] = molecular target: T3, Heat shock factor protein 1 (Mus musculus, UniProt P38532); assay: HSF1 potentiators in luciferase reporter cells, confirmation, cell-based, NIH3T3, luminescence, dose retest (AID 435004); assay type: functional;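 note: stress induced by proteasome inhibitor MG132 added 30 min after compound; luciferase reporter driven by HSF1 response element in NIH3T3 cells; actives raise luminescence as potentiators of the MG132 stress response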
# T3 sequence (P38532 whole entry): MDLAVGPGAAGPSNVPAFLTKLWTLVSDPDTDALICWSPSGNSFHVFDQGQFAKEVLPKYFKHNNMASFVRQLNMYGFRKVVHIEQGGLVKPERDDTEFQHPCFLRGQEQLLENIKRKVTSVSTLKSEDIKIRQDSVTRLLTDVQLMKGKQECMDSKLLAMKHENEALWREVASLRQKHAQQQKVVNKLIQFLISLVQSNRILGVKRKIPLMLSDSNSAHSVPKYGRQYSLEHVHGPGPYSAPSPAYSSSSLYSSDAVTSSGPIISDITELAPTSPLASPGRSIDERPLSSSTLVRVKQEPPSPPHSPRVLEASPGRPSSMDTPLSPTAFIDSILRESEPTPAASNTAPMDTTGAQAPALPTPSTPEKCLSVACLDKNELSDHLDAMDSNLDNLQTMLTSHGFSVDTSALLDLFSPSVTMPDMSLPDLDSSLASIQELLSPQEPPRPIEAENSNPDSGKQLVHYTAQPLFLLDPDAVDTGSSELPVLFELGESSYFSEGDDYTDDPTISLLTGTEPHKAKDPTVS
# [12] = molecular target: Glucose-6-phosphate 1-dehydrogenase (Homo sapiens, UniProt P11413); assay: human G6PD enzyme inhibitors, dose response, selectivity assay for P. falciparum G6PD inhibitor project, biochemical, fluorescence (AID 504792); assay type: functional
# [13] = molecular target: T4, Rac GTPase-activating protein 1 (Homo sapiens, UniProt Q9H0H5); assay: MgcRacGAP GTPase-activating activity inhibitors, confirmation, biochemical, ADP Hunter fluorescence, primary and confirmatory (AID 624330); assay type: functional
# T4 sequence (Q9H0H5 whole entry): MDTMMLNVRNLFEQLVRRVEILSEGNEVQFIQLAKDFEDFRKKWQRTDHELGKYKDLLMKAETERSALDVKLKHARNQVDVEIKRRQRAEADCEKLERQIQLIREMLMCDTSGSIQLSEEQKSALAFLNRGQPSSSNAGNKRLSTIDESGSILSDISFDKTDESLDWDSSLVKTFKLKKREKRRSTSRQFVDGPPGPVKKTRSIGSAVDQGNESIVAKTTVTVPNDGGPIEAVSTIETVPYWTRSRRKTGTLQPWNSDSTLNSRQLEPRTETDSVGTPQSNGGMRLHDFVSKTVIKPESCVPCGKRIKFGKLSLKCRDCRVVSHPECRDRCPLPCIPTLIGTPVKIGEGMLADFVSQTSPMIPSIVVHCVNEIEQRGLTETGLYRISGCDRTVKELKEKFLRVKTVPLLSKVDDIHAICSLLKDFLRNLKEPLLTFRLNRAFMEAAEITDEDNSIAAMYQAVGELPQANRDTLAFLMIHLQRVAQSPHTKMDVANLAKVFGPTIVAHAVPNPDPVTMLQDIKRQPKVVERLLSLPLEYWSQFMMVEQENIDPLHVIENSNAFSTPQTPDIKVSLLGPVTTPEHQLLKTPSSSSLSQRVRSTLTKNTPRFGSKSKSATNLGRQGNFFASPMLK
# [14] = molecular target: Induced myeloid leukemia cell differentiation protein Mcl-1 (Homo sapiens, UniProt Q07820); assay type: functional
# Chain of Induced myeloid leukemia cell differentiation protein Mcl-1 (Q07820 whole entry): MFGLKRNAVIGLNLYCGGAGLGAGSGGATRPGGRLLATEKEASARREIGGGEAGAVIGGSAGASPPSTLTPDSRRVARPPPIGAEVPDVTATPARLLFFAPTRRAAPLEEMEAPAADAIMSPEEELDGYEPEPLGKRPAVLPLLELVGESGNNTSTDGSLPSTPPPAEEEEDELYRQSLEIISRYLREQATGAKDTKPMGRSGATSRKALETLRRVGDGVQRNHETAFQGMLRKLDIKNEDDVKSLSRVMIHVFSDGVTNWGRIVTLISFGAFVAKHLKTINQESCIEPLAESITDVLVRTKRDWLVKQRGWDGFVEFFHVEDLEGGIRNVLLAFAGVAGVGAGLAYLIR
# [15] = molecular target: 26S proteasome non-ATPase regulatory subunit 14 (Homo sapiens, UniProt O00487); assay: inhibition of proteasome subunit RPN11 – biochemical, fluorescence polarization, uHTS hits, confirmation (AID 602368); assay type: functional
# Chain of 26S proteasome non-ATPase regulatory subunit 14 (O00487 whole entry): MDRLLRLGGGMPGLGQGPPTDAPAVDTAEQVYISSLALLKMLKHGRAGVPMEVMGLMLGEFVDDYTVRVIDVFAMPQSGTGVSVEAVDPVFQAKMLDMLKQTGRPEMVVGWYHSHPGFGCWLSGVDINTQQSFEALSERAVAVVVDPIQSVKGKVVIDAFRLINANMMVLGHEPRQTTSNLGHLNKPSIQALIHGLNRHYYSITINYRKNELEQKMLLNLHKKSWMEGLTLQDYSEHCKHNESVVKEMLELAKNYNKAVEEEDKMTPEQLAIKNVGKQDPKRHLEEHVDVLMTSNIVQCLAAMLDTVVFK
# [16] = molecular target: 72 kDa type IV collagenase (Homo sapiens, UniProt P08253); assay: Dose Response validation of uHTS RPN11 inhibitor hits using a MMP-2 Fluorescence assay.; assay type: functional
# Chain of 72 kDa type IV collagenase (P08253 whole entry): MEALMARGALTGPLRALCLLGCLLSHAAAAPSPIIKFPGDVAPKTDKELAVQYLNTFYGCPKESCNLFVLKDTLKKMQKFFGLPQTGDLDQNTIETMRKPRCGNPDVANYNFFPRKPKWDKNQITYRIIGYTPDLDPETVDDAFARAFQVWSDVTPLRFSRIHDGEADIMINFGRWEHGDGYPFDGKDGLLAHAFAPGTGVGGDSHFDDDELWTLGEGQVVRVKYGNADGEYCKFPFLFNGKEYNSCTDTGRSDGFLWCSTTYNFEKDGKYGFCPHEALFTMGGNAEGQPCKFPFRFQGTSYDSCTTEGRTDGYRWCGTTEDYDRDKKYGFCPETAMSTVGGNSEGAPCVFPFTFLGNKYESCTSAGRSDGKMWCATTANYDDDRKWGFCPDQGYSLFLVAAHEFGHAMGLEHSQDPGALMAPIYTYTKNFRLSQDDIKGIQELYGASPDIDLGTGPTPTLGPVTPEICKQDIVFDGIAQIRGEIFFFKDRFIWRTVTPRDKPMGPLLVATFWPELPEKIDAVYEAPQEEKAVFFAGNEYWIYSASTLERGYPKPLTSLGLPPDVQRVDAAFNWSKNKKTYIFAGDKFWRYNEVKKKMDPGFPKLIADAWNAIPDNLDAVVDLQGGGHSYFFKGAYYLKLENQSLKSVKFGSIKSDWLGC
# Prothrombin = Prothrombin (Bos taurus, UniProt P00735); assay: thrombin inhibition, dose response, biochemical, fluorescence polarization, uHTS hits (AID 602369); assay type: functional
# Cytochrome P450 2C9 = Cytochrome P450 2C9 (Homo sapiens, UniProt P11712)
# Vero [17] = assay: Vero cell cytotoxicity, cytotoxicity control for flavivirus capping enzyme inhibitors (AID 588742); assay type: functional; conditions: Chlorocebus sabaeus
# [18] = molecular target: FAD-linked sulfhydryl oxidase ALR (Homo sapiens, UniProt P55789); assay: inhibitors of human ALR sulfhydryl oxidase, dose response, biochemical, H2O2 detection, luminescence, cherry-pick (AID 493248)
# Chain of FAD-linked sulfhydryl oxidase ALR (P55789 whole entry): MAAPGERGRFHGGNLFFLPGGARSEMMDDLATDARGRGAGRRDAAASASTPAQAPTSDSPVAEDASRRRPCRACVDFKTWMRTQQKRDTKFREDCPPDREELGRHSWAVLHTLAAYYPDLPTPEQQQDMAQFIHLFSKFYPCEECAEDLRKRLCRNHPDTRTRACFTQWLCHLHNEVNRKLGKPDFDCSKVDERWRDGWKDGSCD
# [19] = molecular target: T5, Calpain-2 catalytic subunit (Sus scrofa, UniProt P43367); assay: pig calpain II inhibitor potency, dose response, biochemical, fluorogenic peptide substrate (AID 1420); assay type: functional
# T5 sequence (P43367 whole entry): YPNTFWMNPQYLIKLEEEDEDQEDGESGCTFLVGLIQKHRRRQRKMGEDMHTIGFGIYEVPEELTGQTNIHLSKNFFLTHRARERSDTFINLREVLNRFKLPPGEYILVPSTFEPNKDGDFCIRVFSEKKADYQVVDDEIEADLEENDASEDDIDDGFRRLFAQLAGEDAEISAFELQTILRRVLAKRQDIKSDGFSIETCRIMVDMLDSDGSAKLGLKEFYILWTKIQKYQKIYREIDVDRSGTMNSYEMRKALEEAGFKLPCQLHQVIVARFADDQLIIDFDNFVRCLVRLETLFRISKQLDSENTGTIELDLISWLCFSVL
# [20] = molecular target: Voltage-dependent T-type calcium channel subunit alpha-1H (Homo sapiens, UniProt O95180); assay type: functional;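 note: channel activity triggered by adding a high calcium stimulation buffer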
# Chain of Voltage-dependent T-type calcium channel subunit alpha-1H (O95180 whole entry): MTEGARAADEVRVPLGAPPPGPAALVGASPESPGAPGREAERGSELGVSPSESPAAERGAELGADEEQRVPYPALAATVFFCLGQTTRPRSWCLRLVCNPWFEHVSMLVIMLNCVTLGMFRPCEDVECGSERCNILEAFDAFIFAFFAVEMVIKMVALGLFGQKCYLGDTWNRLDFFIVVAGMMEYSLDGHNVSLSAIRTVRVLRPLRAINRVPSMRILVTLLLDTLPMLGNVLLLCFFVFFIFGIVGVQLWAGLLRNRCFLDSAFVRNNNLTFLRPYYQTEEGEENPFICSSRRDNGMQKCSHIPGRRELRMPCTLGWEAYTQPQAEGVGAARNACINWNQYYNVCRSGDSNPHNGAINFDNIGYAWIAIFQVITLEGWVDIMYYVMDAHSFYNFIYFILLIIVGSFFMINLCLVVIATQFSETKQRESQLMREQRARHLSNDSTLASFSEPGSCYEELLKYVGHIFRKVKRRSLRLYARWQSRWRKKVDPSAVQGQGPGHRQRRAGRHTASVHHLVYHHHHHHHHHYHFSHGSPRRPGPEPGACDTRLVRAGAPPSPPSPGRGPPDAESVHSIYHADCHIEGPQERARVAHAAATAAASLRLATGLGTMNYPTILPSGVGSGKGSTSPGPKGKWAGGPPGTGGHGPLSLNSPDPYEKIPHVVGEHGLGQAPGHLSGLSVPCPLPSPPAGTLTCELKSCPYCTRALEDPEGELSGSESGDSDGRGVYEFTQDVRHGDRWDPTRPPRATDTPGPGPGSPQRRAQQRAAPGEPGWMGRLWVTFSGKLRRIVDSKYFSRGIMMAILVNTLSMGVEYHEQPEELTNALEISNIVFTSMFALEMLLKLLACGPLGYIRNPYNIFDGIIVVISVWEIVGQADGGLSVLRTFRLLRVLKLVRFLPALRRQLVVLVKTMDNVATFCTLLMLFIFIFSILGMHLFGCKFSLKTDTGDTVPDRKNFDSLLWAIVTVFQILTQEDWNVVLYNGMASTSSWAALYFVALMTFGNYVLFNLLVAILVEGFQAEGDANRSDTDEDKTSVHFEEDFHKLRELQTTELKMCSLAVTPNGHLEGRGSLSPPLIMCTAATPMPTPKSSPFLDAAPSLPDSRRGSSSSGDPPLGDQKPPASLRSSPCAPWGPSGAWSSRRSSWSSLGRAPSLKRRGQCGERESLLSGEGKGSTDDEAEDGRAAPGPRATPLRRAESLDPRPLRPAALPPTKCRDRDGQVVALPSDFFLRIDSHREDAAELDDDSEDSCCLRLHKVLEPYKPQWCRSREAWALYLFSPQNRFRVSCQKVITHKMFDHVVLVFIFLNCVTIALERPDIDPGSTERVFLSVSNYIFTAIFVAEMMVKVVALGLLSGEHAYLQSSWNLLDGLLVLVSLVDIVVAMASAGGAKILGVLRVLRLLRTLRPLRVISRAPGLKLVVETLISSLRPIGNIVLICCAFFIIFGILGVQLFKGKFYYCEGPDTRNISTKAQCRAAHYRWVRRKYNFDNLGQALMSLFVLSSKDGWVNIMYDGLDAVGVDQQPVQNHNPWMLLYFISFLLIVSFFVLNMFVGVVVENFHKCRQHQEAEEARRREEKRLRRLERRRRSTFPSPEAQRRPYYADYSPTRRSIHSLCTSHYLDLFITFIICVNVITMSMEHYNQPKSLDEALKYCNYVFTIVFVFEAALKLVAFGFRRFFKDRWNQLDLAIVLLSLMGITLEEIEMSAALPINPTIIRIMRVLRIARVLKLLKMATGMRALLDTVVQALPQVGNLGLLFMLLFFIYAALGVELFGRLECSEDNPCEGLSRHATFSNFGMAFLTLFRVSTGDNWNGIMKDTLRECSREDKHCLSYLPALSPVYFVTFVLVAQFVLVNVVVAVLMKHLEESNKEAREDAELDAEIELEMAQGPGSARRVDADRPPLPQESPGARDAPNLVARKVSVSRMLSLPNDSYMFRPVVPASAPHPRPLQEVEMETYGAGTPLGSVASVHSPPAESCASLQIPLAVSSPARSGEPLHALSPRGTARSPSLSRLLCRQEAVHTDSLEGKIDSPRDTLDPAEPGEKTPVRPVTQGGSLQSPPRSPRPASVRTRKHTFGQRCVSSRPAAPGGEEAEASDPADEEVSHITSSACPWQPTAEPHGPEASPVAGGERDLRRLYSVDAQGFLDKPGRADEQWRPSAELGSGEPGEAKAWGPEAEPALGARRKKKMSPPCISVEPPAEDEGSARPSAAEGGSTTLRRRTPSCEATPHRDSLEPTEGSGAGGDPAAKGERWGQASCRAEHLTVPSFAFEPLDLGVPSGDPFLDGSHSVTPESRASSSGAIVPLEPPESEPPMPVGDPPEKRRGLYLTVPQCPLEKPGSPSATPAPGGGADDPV
# Leucine aminopeptidase = molecular target: T6, Leucine aminopeptidase (Plasmodium falciparum 3D7, UniProt Q8IL11); assay: P. falciparum M17LAP inhibitors, primary screen, biochemical, fluorogenic H-Leu-NHMec substrate, 1536-well (AID 1619); assay type: functional
# T6 sequence (Q8IL11 whole entry): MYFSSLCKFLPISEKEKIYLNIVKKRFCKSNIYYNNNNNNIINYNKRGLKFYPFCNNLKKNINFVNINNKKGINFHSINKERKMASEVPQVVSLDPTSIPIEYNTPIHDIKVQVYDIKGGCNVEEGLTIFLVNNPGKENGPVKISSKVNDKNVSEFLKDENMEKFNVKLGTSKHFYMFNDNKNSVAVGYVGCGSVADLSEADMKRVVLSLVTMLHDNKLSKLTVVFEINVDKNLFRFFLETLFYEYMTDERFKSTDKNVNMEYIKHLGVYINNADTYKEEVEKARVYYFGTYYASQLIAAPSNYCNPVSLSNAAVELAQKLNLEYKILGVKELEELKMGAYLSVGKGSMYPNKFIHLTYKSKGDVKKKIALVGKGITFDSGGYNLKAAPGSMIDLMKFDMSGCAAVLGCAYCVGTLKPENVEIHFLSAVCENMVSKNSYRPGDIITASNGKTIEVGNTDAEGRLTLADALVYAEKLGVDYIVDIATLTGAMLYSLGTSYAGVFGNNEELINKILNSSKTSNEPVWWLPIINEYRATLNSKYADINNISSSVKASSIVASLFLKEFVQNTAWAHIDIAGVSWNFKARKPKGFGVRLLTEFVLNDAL
# Chain of Eukaryotic translation initiation factor 4E (P63073 whole entry): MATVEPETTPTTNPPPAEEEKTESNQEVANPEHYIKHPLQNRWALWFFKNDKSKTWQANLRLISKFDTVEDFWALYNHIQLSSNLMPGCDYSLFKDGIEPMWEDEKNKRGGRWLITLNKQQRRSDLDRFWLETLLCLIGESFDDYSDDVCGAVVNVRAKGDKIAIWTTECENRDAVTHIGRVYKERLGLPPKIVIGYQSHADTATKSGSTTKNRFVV
compound,measurement,setting,value
Cc1cccc(-c2nnc(SCC3CNC(=O)O3)n2-c2ccc(Cl)cc2)c1 (stereo not given),IC50,[1],> 64 µM (inactive)
O=C(Nc1nccs1)c1sc2ccccc2c1Cl,EC50,Streptococcus,> 150 µM (not active)
same,EC50,[2],18.4 µM (active)
same,CC50,[3],> 20 µM (active)
same,IC50,cells,20.5 µM (active)
same,EC50,Streptokinase A,> 150 µM (not active)
CCCCN1C(=O)/C(=C(/C#N)C(N)=O)c2ccccc21,IC50,Large T antigen,60.5 µM (active)
COc1ccc(CCn2c(C3CCCCC3)nc3c(c(=O)c4ccccc4n3C)c2=O)cc1,EC50,[4],17.1 µM (active)
same,AC50,[5],2.4 µM (active)
same,EC50,[6],> 120 µM (not active)
same,EC50,[7],0.438 µM (active)
same,CC50,Vero [8],9.23 µM (active)
CC[N+]1=CN(c2ccccc2)C(C)=CC1(C)C,IC50,[9],6.23 µM (active)
CC1(C)CC(=O)C2=C(C1)OC(N)=C(C#N)C2C#Cc1ccccc1 (stereo not given),CC50,[10],38.4 µM (active)
same,EC50,[11],38.3 µM (active)
Cc1cc(OCC[N+]2(C)CCCCC2)nc2ccccc12,IC50,[9],3.69 µM (active)
O=C(c1ccc2ccccc2c1)N1CCN(c2ccc(O)cc2)CC1,IC50,Large T antigen,9.84 µM (active)
O=C1NC(=S)N(Cc2ccco2)C(=O)/C1=C\c1cccs1,IC50,[1],9.49 µM (active)
CC(=O)c1cccc(NC(=O)c2cnn(-c3ccccc3)c2C)c1,IC50,[12],> 80 µM (inactive)
O=C(CNC1CCCC1)Nc1ccc(N2CCCCCC2)cc1,CC50,[3],18.1 µM (active)
same,IC50,cells,17.8 µM (active)
same,IC50,[13],75.8 µM (active)
O=[N+]([O-])C(=c1ccc2c(c1)N1C3=C(CCCC3)CC3CCCCC31N=2)[N+](=O)[O-] (stereo not given),IC50,[14],1.95 µM (active)
O=C(O)c1ccc(COc2ccccc2/C=C2/NC(=O)N(c3cccc(Cl)c3)C2=O)cc1,IC50,[9],2.75 µM (active)
same,IC50,[15],18.7 µM (active)
same,IC50,[16],15.6 µM (active)
same,IC50,Prothrombin,> 100 µM (inactive)
N#Cc1ccc(-c2csc(NC3=NCCCCC3)n2)cc1,IC50,[1],> 64 µM (inactive)
CCN(CC)c1ccc(NC(=O)c2cccc(F)c2)c(C)c1,AC50,Cytochrome P450 2C9,inconclusive
same,CC50,Vero [17],> 40 µM (active)
same,AC50,[18],1.19 µM (active)
same,IC50,Large T antigen,28.3 µM (active)
Cc1ccc2oc(=O)n(Cc3ccccc3OC(C)C)c2c1,IC50,[19],> 50 µM (not active)
same,EC50,[20],8.57 µM (active)
O=C1CSC(=S)N1/N=C/c1ccc(O)c([N+](=O)[O-])c1,IC50,[14],6.99 µM (active)
same,IC50,Large T antigen,26.8 µM (active)
O=C(Nc1nc(=O)[nH]s1)c1ccccc1,IC50,[19],> 50 µM (not active)
same,IC50,Leucine aminopeptidase,18.1 µM (active)
COc1cc(/C=N\Nc2cc(=O)n(C)c(=O)n2C)ccc1O,IC50,[13],33.7 µM (active)
same,IC50,Large T antigen,23.7 µM (active)
